Assay results taken from patent US6479531B1, “Gastrin and cholecystokinin receptor ligands” (James Black Foundation Limited, priority 1998, dated 2002).
Counter-ions that a name gives are not always drawn.

Legend:
CCKB receptor = target: T1, CCKB receptor (Mus musculus, UniProt P56481); assay: CCKB receptor radioligand binding assay in mouse cortical membranes; conditions: [125I]-CCK8(S) 200 pM, 150 min at 21±3°; for Ki: read-out: CCKB pKi (converted)
T1 construct: The whole brains from male mice (CD1 22-25 g; Charles River) were removed; from tissue; host or cells: cerebral cortex membranes of male CD1 mice
T1 sequence (P56481 1-453): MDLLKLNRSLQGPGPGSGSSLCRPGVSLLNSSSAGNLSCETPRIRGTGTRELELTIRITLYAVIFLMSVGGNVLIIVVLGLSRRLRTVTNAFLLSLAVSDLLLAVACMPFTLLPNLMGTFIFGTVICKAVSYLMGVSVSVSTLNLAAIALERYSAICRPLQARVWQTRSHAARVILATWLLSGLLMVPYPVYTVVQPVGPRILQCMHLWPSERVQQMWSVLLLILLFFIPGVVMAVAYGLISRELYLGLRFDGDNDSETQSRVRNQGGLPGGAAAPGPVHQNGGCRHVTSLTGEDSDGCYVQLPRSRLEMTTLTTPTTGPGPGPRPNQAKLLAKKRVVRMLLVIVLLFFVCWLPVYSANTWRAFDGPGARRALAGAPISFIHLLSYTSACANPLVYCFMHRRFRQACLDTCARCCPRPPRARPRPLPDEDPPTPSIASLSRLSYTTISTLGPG
Procedure, shortened: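 Bound radioactivity was gamma-counted after rapid GF/B filtration and cold 50 mM Tris-HCl (pH 7.4) washes. The tissue was cerebral cortex from male CD1 mice, prepared as twice-centrifuged membranes in pH 7.2 HEPES/NaCl/KCl/MgCl2/EDTA buffer with bacitracin at 20 mg/ml original wet weight.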

gastrin receptor = target: T2, gastrin receptor (Rattus norvegicus, UniProt P30553); assay: gastrin antagonist activity in immature rat stomach assay (pentagastrin dose-response, acid secretion); conditions: isolated immature rat stomach, cumulative pentagastrin dose-response curves; for Kb: read-out: Gastrin pKb (converted)
T2 construct: The stomach was excised and flushed with ca. 1 ml of unbuffered physiological saline solution; from tissue; host or cells: isolated whole stomach of immature rats (ca. 21 days old)
T2 sequence (P30553 1-452): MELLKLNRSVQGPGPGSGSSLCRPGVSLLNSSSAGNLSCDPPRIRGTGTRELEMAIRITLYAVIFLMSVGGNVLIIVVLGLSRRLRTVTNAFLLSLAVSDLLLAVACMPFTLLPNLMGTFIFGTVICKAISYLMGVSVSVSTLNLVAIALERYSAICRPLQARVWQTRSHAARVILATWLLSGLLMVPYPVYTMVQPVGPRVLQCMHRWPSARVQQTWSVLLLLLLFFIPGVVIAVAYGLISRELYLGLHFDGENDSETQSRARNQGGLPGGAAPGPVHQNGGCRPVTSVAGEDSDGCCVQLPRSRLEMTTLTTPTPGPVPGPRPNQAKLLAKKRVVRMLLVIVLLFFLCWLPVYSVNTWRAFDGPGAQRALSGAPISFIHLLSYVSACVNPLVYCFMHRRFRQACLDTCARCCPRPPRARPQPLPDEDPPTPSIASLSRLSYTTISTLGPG
Procedure, shortened: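 Isolated, lumen-perfused stomach from immature rats (33-50 g, ca. 21 days) in a 37° organ bath with 3×10^−8 M 5-methylfurmethide, gassed 95% O2/5% CO2. Compound added serosally after 120 min stabilisation; cumulative pentagastrin dose-response curves begun 60 min later, acid secretion followed by perfusate pH.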

| Compound | Ki (CCKB receptor) [nM] | Kb (gastrin receptor) [nM] | CCKB pKi (CCKB receptor) | Gastrin pKb (gastrin receptor) |
| --- | --- | --- | --- | --- |
| O=C(O)c1cccc(NC(=O)c2nc(-c3cnc[nH]3)[nH]c2CCC23CC4CC(CC(C4)C2)C3)c1 [Example 110, 3-{[5-(2-Adamantan-1-yl-ethyl)-1H-3′H-[2,4′]biimidazolyl-4-carbonyl]-amino}-benzoic Acid] | 339 | 1050 | – | – |
| Nc1ccc(C(=O)O)cc1NC(=O)c1nc(C2CCCCC2)[nH]c1CCC12CC3CC(CC(C3)C1)C2 [Example 131, 3-{[5-(2-Adamantan-1-yl-ethyl)-2-cyclohexyl-1H-imidazole-4-carbonyl]-amino}-4-amino-benzoic Acid] | 407 | 339 | – | – |
| O=C(O)c1cccc(NC(=O)c2nc(C3CC4CCC3C4)[nH]c2CCC23CC4CC(CC(C4)C2)C3)c1 (racemic) [Example 114, (±)-endo-3-{[5-(2-Adamantan-1-yl-ethyl)-2-bicyclo[2.2.1]hept-2-yl-1H-imidazole-4-carbonyl]-amino}-benzoic Acid] | 31.6 | 2.24 | – | – |
| Cc1ccccc1-c1nc(C(=O)Nc2cccc(C(=O)O)c2C)c(CCC23CC4CC(CC(C4)C2)C3)[nH]1 [Example 104, 3-{[5-(2-Adamantan-1-yl-ethyl)-2-o-tolyl-1H-imidazole-4-carbonyl]-amino}-2-methyl-benzoic Acid] | 129 | 42.7 | – | – |
| O=C(O)c1cccc(NC(=O)c2cc(-c3ccccc3)[nH]c2CC2CCCCCC2)c1 [Example 12, 3-[(2-Cycloheptylmethyl-5-phenyl-1H-pyrrole-3-carbonyl)-amino]-benzoic Acid] | 1120 | 1000 | – | – |
| CC1(C)C2CCC(c3nc(C(=O)Nc4cccc(C(=O)O)c4)c(CCC45CC6CC(CC(C6)C4)C5)[nH]3)C1C2 (centres unmarked) [Example 190, 3-{[5-(2-Adamantan-1-yl-ethyl)-2-(6,6-dimethyl-bicyclo[3.1.1]hept-2-yl)-1H-imidazole-4-carbonyl]-amino}-benzoic Acid] | 174 | 4.17 | – | – |
| 5-[(2-Cycloheptylmethyl--phenyl-1H-pyrrole-3-carbonyl)-amino]-isophthalic Acid [Example 13] | – | – | 6.44 | 6.21 |
| CC(Cc1[nH]c(C2CCCCC2)nc1C(=O)Nc1cccc(C(=O)O)c1)C12CC3CC(CC(C3)C1)C2 (racemic) [Example 132, (±)-3-{[5-(2-Adamantan-1-yl-propyl)-2-cyclohexyl-1H-imidazole-4-carbonyl]-amino}-benzoic Acid] | 42.7 | 8.13 | – | – |
| Cc1ccccc1-c1nc(C(=O)Nc2cccc(CCC(=O)O)c2)c(CCC23CC4CC(CC(C4)C2)C3)[nH]1 [Example 97, 3-(3-{[5-(2-Adamantan-1-yl-ethyl)-2-o-tolyl-1H-imidazole-4-carbonyl]-amino}-phenyl)-propionic Acid Trifluoroacetic Acid Salt] | 6.76 | 501 | – | – |
| COc1ccccc1-c1nc(C(=O)Nc2cccc(C(=O)O)c2)c(CCC23CC4CC(CC(C4)C2)C3)[nH]1 [Example 58, 3-{[5-(2-Adamantan-1-yl-ethyl)-2-(2-methoxy-phenyl)-1H-imidazole-4-carbonyl]-amino}-benzoic Acid] | 794 | 22.9 | – | – |
| CC(C)CN1CCC[C@@H]1c1nc(C(=O)Nc2cccc(C(=O)O)c2)c(CCC23CC4CC(CC(C4)C2)C3)[nH]1 [Example 144, (R)-3-{[5-(2-Adamantan-1-yl-ethyl)-2-[1-(2-methyl-propyl)-pyrrolidin-2-yl]-1H-imidazole-4-carbonyl]-amino}-benzoic Acid] | 437 | 14.1 | – | – |
| O=C(O)c1cccc(NC(=O)c2[nH]c(C3CCCCCC3)nc2CCC23CC4CC(CC(C4)C2)C3)c1 [Example 79, 3-{[5-(2-Adamantan-1-yl-ethyl)-2-cycloheptyl-1H-imidazole-4-carbonyl]-amino}-benzoic Acid] | 11.7 | 5.37 | – | – |
| O=C(O)c1cccc(NC(=O)c2nc(-c3ccco3)[nH]c2CCC23CC4CC(CC(C4)C2)C3)c1 [Example 185, 3-{[5-(2-Adamantan-1-yl-ethyl)-2-furan-2-yl-1H-imidazole-4-carbonyl]-amino}benzoic Acid] | 457 | 155 | – | – |
| CN(C)c1cccc(-c2nc(C(=O)Nc3cccc(C(=O)O)c3)c(CCC34CC5CC(CC(C5)C3)C4)[nH]2)c1 [Example 71, 3-{[5-(2-Adamantan-1-yl-ethyl)-2-(3-dimethylamino-phenyl)-1H-imidazole-4-carbonyl]-amino}-benzoic Acid] | 186 | 794 | – | – |
| O=C(O)c1cccc(NC(=O)c2nc(-c3ccc(F)cc3)[nH]c2CCC23CC4CC(CC(C4)C2)C3)c1 [Example 54, 3-{[5-(2-Adamantan-1-yl-ethyl)-2-(4-fluoro-phenyl)-1H-imidazole-4-carbonyl]-amino}-benzoic Acid] | 309 | 813 | – | – |
| O=C(O)c1cc(NC(=O)c2cc(-c3ccccc3)[nH]c2CC23CC4CC(CC(C4)C2)C3)cc(C(=O)O)c1 [Example 1, 5-[(2-Adamantan-1-ylmethyl-5-phenyl-1H-pyrrole-3-carbonyl)-amino]-isophthalic Acid] | 191 | 468 | – | – |
| Cc1ccc(NC(=O)c2nc(C3CCCCC3)[nH]c2CCC2CCCCCC2)cc1C(=O)O [Example 167, 5-{[5-(2-Cycloheptyl-ethyl)-2-cyclohexyl-1H-imidazole-4-carbonyl]-amino}-2-methyl-benzoic Acid] | 28.2 | 13.8 | – | – |
| O=C(O)c1cc(NC(=O)c2[nH]c(-c3ccccc3)nc2CC2CCCCCC2)cc(C(=O)O)c1 [Example 24, 5-[(5-Cycloheptylmethyl-2-phenyl-1H-imidazole-4-carbonyl)-amino]-isophthalic Acid] | 1000 | 479 | – | – |
| O=C(Nc1cc(-c2nnn[nH]2)cc(-c2nnn[nH]2)c1)c1cc(-c2ccc3ccccc3c2)[nH]c1CC1CCCCCC1 [Example 15, 2-Cycloheptylmethyl-5-naphthalen-2-yl-1H-pyrrole-3-carboxylic Acid [3,5-bis-(1H-tetrazol-5-yl)-phenyl]-amide] | 182 | – | – | – |
| O=C(O)c1cccc(NC(=O)c2nc(C3CCCCCCCCCCC3)[nH]c2CCC23CC4CC(CC(C4)C2)C3)c1 [Example 127, 3-{[5-(2-Adamantan-1-yl-ethyl)-2-cyclododecyl-1H-imidazole-4-carbonyl]-amino}-benzoic Acid] | 1700 | – | – | – |
| O=C(O)c1ccccc1NC(=O)c1cc(-c2ccccc2)[nH]c1CC12CC3CC(CC(C3)C1)C2 [Example 6, 2-[(2-Adamantan-1-ylmethyl-5-phenyl-1H-pyrrole-3-carbonyl)-amino]-benzoic Acid] | 832 | – | – | – |
| O=C(Nc1cccc(-c2nnn[nH]2)c1)c1nc(-c2ccccc2)[nH]c1CCC12CC3CC(CC(C3)C1)C2 [Example 49] | 182 | – | – | – |
| O=C(O)c1cc(NC(=O)c2cc(-c3ccccc3)[nH]c2CCC23CC4CC(CC(C4)C2)C3)cc(C(=O)O)c1 [Example 17, 5-{[2-(2-Adamantan-1-yl-ethyl)-5-phenyl-1H-pyrrole-3-carbonyl]-amino}-isophthalic Acid] | 209 | – | – | – |
| Cc1ccccc1-c1nc(C(=O)Nc2ccc(C)c(C(=O)O)c2C)c(CCC23CC4CC(CC(C4)C2)C3)[nH]1 [Example 240, 3-{[5-(2-Adamantan-1-yl-ethyl)-2-o-tolyl-1H-imidazole-4-carbonyl]-amino}-2,6-dimethyl-benzoic Acid] | 26.3 | – | – | – |
| O=C(O)c1cc(NC(=O)c2nc[nH]c2CC2CCCCCC2)cc(C(=O)O)c1 [Example 35, 5-[(5-Cycloheptylmethyl-1H-imidazole-4-carbonyl)-amino]-isophthalic Acid] | 3890 | – | – | – |
| O=C(O)c1cccc(NC(=O)c2nc(-c3ccc4ccccc4c3)[nH]c2CCC23CC4CC(CC(C4)C2)C3)c1 [Example 45, 3-{[5-(2-Adamantan-1-yl-ethyl)-2-naphthalen-2-yl-1H-imidazole-4-carbonyl]-amino}-benzoic Acid] | 501 | – | – | – |
